The results in this text go back to PubChem BioAssay (NCI).

Several values for one entry are separate records, joined by “and”; a condition that tells them apart may be missing. Identical values can stand only once.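 Assay format: 96-well plates, 48-hour exposure. Abbreviation: GI50, concentration required for 50% inhibition of growth. TGI: total growth inhibition.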

As a reminder, the GI50 is the concentration at which growth is held to half of that of the control. The term TGI denotes the concentration at which net growth stops. Low values mean greater sensitivity of the cells, high ones lower sensitivity of the cells.

Assay in all cases: DTP human tumour cell line panel, 48 h
The subject of assay [1] is NCI/ADR-RES ovarian.
The test system of assay [2] is MCF7 breast.
The subject of assay [3] is PC-3 prostate.
Assay [4] relates to MDA-MB-435.
In assay [5] the test system is DU-145 prostate.
The subject of assay [6] is RXF 393 renal.
Assay [7] has as its system NCI-H460 lung.
Assay [8] relates to LOX IMVI melanoma.
Assay [9] relates to 786-0 renal.
Assay [10] deals with CCRF-CEM leukemia.

On to `CC(=O)OCC(=O)O[C@@H]1C[C@]2(C(C)C)O[C@@]1(C)[C@@H]1CC[C@@H](C)[C@H]1[C@@H]2OC(=O)/C=C/c1ccccc1`, for which the GI50 in assay [1] is 0.143 µM; in assay [2] it was 22.6 µM; in assay [3], 7.88 µM; in assay [4], 22 µM; in assay [5], 18.4 µM; in assay [6], 0.211 µM. Further, the GI50 in assay [7] is 21.4 µM; in [8], 15.5 µM; in [9], 0.931 µM; in [10], 21.3 µM. The TGI in assay [1] was 27.5 µM; in assay [2], greater than 100 µM; in assay [3], greater than 100 µM; in [4], 59.7 µM; in [5], 40.6 µM; in [6] it was 2.01 µM. For the same compound, the TGI was 60.1 µM in assay [7], 32.7 µM in [8], 18.9 µM in [9] and greater than 100 µM in assay [10].
In the case of `O=C(Nc1cccc(Oc2nnc(Cl)c3ccccc23)c1)Nc1ccc(Cl)c(C(F)(F)F)c1`, the GI50 in assay [1] is 0.926 µM; in assay [2], 0.571 µM; in assay [3] it was 0.545 µM; in assay [4], 0.791 µM; in [5] it was 1.27 µM; in assay [6], 1.17 µM. Further, the GI50 is 0.898 µM in assay [7], 0.68 µM in [8], 0.767 µM in [9] and 0.208 µM in assay [10]. Moreover, the TGI in [1] came out at 9.95 µM; in [2], 3.03 µM; in [3] it was 2.51 µM; in assay [4], 3.24 µM; in assay [5] it was 4.08 µM; in assay [6] it was 3.87 µM. Further, the total growth inhibition concentration (TGI) in assay [7] is 3.44 µM; in assay [8], 2.82 µM; in [9] it was 3.01 µM; in assay [10] it was 17.5 µM.
`C/C(=C\C1=C(Cl)C(=O)c2ccccc2C1=O)C(=O)O`: the GI50 is 21.1 µM in [1]; 17.6 µM in assay [2]; 17.3 µM in assay [3]; 19.4 µM in assay [4]; 17.6 µM in assay [5]; 18.3 µM in [6]. The GI50 is 21.9 µM in assay [7], 17.6 µM in assay [8], 17.6 µM in assay [9] and 21.8 µM in assay [10]. For the same compound, the total growth inhibition concentration (TGI) in [1] amounted to 46.8 µM; in assay [2], 43.3 µM; in assay [3], 31.1 µM; in assay [4], 34.8 µM; in assay [5] it was 34.6 µM; in assay [6], 33.1 µM. In addition, the TGI in assay [7] is 45.1 µM; in assay [8] it was 38.6 µM; in assay [9], 32.3 µM; in assay [10], 46.2 µM.
Take `CN(C)CCOc1ccc(/C(=C(/CCCl)c2ccccc2)c2ccccc2)cc1`: the GI50 is 1.6 µM in [1]; 0.565 µM in assay [2]; 0.901 µM in assay [3]; 0.894 µM in assay [4]; 1.88 µM in assay [5]; 0.698 µM in assay [6]. Further, the GI50 is 0.845 µM in [7], 0.819 µM in assay [8], 0.906 µM in assay [9] and 1.06 µM in [10]. In addition, the TGI in assay [1] is 4.95 µM and 30.7 µM; in assay [5] it was 18.1 µM and 33.2 µM; in [6] it was 1.4 µM; in assay [10] it was 2.85 µM and 23.5 µM.
In the case of `CN=C(NC#N)NCCSCc1nc[nH]c1C`, the TGI in [1], in assay [2], in assay [3], in assay [4], in [5] and in assay [6] was greater than 100 µM throughout. For the same compound, the TGI in [7], in [8], in [9] and in [10] was greater than 100 µM each time.
For `Cc1cnc(/C=N\NC(N)=S)c2cccc(N)c12`, the GI50 is 3.53 µM in [1]; 1.5 µM in assay [2]; greater than 22.7 µM in assay [3]; 3.9 µM in assay [4]; 1.68 µM in [5]; 2.47 µM in [6]. Besides, the GI50 in assay [7] is 2.61 µM; in [8], 2.32 µM; in [9] it was 0.867 µM and 0.501 µM; in assay [10], 1.82 µM. Also, the TGI in assay [1] is > 100 µM and 17.8 µM; in assay [2] it was greater than 100 µM; in assay [3], greater than 100 µM; in assay [4] it was greater than 100 µM; in [5], greater than 100 µM; in assay [6], greater than 100 µM. The concentration for total growth inhibition (TGI) in [7] is greater than 37.7 µM; in [8] it was greater than 100 µM; in assay [10] it was greater than 24 µM.
Take `C[C@@H]1CC[C@@H]2[C@@H]1[C@H](OC(=O)/C=C/c1ccccc1)[C@]1(C3CCCCC3)C[C@@H](NC(=O)CO)[C@@]2(C)O1`: the GI50 in [1] is 12.9 µM; in assay [2], 14.4 µM; in assay [3], 14.9 µM; in assay [4], 17.2 µM; in [5], 18.4 µM; in assay [6], 3.29 µM. The GI50 in [7] is 16.6 µM; in assay [8], 17.8 µM; in assay [9], 14.9 µM; in assay [10], 23.2 µM. Besides, the TGI was 32.1 µM in assay [1]; 32.7 µM in assay [2]; 28.9 µM in assay [3]; 32.4 µM in assay [4]; 32.9 µM in assay [5]; 13.8 µM in assay [6]. For the same compound, the TGI in assay [7] amounted to 32.8 µM; in [8], 32.5 µM; in [9], 29.3 µM; in assay [10] it was 45.2 µM.
In the case of `CC(C)(C#N)c1cc(F)cc(C(=O)Nc2cc(Nc3ncccc3-c3ncnc4nc[nH]c34)ccc2F)c1`, the GI50 in assay [1] was 4.58 µM; in assay [2] it was 8.73 µM; in assay [3], 7.67 µM; in [4] it was 0.307 µM; in [5], 5.51 µM; in assay [6] it was 2.22 µM. The GI50 was 2.51 µM in [7], 0.104 µM in [8], greater than 10 µM in assay [9] and 3.91 µM in [10]. The TGI in assay [1], in [2], in assay [3], in [4], in [5] and in assay [6] was greater than 10 µM in each case. Besides, the TGI is greater than 10 µM in assay [7], 1.8 µM in [8], greater than 10 µM in [9] and greater than 10 µM in assay [10].
